In ChEMBL document CHEMBL1201862, “PubChem BioAssay data set” (2004):
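Grown in 96-well plates, cells were treated for 48 hours with each compound at five concentrations. Insufficient inhibition: endpoint recorded as highest concentration tested. GI50: concentration for 50% inhibition of growth.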 Activity calls are given as the source filed them. Rule as the data show it: active = GI50 up to about 1.1 µM and inactive = higher.

Key:
Assay in all cases: NCI-60 cell line screen, 48 h
K562 = tested on: K562
CAKI-1 = tested on: CAKI-1
SF-539 = tested on: SF-539
U-251 = tested on: U-251
HT-29 = tested on: HT-29
HCT-116 = tested on: HCT-116
M14 = tested on: M14
OVCAR-8 = tested on: OVCAR-8
SNB-75 = tested on: SNB-75
A498 = tested on: A498
SF-295 = tested on: SF-295
UACC-62 = tested on: UACC-62
SNB-19 = tested on: SNB-19
HCC 2998 = tested on: HCC 2998
DU-145 = tested on: DU-145
LOX IMVI = tested on: LOX IMVI
SR = tested on: SR
MOLT-4 = tested on: MOLT-4
UACC-257 = tested on: UACC-257
HCT-15 = tested on: HCT-15
IGROV-1 = tested on: IGROV-1
A549 = tested on: A549
OVCAR-5 = tested on: OVCAR-5
BT-549 = tested on: BT-549
UO-31 = tested on: UO-31
SW-620 = tested on: SW-620
SK-OV-3 = tested on: SK-OV-3
PC-3 = tested on: PC-3
SK-MEL-28 = tested on: SK-MEL-28
SK-MEL-2 = tested on: SK-MEL-2
CCRF-CEM = tested on: CCRF-CEM
MDA-MB-435 = tested on: MDA-MB-435
ACHN = tested on: ACHN
MDA-MB-231 = tested on: MDA-MB-231
NCI-H460 = tested on: NCI-H460
SF-268 = tested on: SF-268
Hs-578T = tested on: Hs-578T
HL-60 = tested on: HL-60
MDA-N = tested on: MDA-N
Malme-3M = tested on: Malme-3M
KM12 = tested on: KM12
NCI-H226 = tested on: NCI-H226
MCF7 = tested on: MCF7
SN12C = tested on: SN12C
T47D = tested on: T47D
HOP-92 = tested on: HOP-92
TK-10 = tested on: TK-10
NCI-H522 = tested on: NCI-H522
COLO 205 = tested on: COLO 205
NCI/ADR-RES = tested on: NCI/ADR-RES
SK-MEL-5 = tested on: SK-MEL-5
786-0 = tested on: 786-0
NCI-H23 = tested on: NCI-H23
EKVX = tested on: EKVX
OVCAR-4 = tested on: OVCAR-4
HOP-62 = tested on: HOP-62
OVCAR-3 = tested on: OVCAR-3
RPMI-8226 = tested on: RPMI-8226

Measured: GI50

CC1(C)CCC[C@](C)([C@H]2CC[C@]3(C)[C@@H]2[C@H](O)C[C@@H]2[C@@]4(C)CC[C@H](O)C(C)(C)[C@@H]4[C@H](O)C[C@]23C)O1
11.6 µM: HCT-15
inactive: K562 5.48 µM | CAKI-1 5.6 µM | SF-539 11.7 µM | U-251 12.3 µM | HT-29 3.55 µM | HCT-116 15.9 µM | M14 14.9 µM | OVCAR-8 16.9 µM | SNB-75 10.7 µM | A498 12.8 µM | SF-295 10.5 µM | UACC-62 13.3 µM | SNB-19 11.5 µM | HCC 2998 13.9 µM | DU-145 15.8 µM | LOX IMVI 17.5 µM | SR 5.31 µM | MOLT-4 3.78 µM | UACC-257 13.7 µM | IGROV-1 17.5 µM | A549 9.68 µM | OVCAR-5 20.1 µM | BT-549 13.8 µM | UO-31 11.7 µM | SW-620 13.2 µM | SK-OV-3 16.9 µM | PC-3 10.9 µM | SK-MEL-28 11.9 µM | SK-MEL-2 13 µM | CCRF-CEM 3.09 µM | MDA-MB-435 12.2 µM | ACHN 12.1 µM | MDA-MB-231 17.3 µM | NCI-H460 10.1 µM | SF-268 13.8 µM | Hs-578T 12.9 µM | HL-60 2.16 µM | MDA-N 13.5 µM | Malme-3M 19.1 µM | KM12 11.1 µM | NCI-H226 15.7 µM | MCF7 9.73 µM | SN12C 14.3 µM | T47D 10.6 µM | HOP-92 13.6 µM | TK-10 11.3 µM | NCI-H522 12.1 µM | COLO 205 10 µM | NCI/ADR-RES 15.2 µM | SK-MEL-5 3.64 µM | 786-0 19 µM | NCI-H23 11.3 µM | EKVX 13.6 µM | OVCAR-4 10.6 µM

COc1cccc(/C=C2\S/C(=N/Nc3nc(-c4ccc([N+](=O)[O-])cc4)cs3)NC2=O)c1O
inactive: CAKI-1 25 µM | SF-539 7.82 µM | U-251 1.8 µM | HT-29 21.9 µM | HCT-116 13.1 µM | M14 17 µM | OVCAR-8 13.6 µM | A498 23.4 µM | SF-295 16.9 µM | SNB-19 5.19 µM | HCC 2998 17.5 µM | DU-145 21.9 µM | LOX IMVI 3.25 µM | SR 12 µM | MOLT-4 22.1 µM | UACC-257 27.5 µM | HOP-62 15.3 µM | IGROV-1 11.3 µM | A549 15.9 µM | OVCAR-5 25.3 µM | BT-549 4.23 µM | UO-31 12.5 µM | SW-620 19.3 µM | SK-OV-3 26.9 µM | PC-3 16.1 µM | SK-MEL-28 20.8 µM | CCRF-CEM 9.89 µM | MDA-MB-435 19.5 µM | ACHN 17.3 µM | MDA-MB-231 18.4 µM | NCI-H460 12.6 µM | SF-268 5 µM | OVCAR-3 15 µM | RPMI-8226 10.4 µM | Hs-578T 12.3 µM | HL-60 4.45 µM | MDA-N 22.2 µM | Malme-3M 20.5 µM | KM12 13.2 µM | NCI-H226 14.9 µM | MCF7 16.6 µM | SN12C 22.1 µM | T47D 4.66 µM | HOP-92 10.3 µM | TK-10 20.7 µM | COLO 205 16.4 µM | NCI/ADR-RES 17.9 µM | SK-MEL-5 12.2 µM | 786-0 19.9 µM | NCI-H23 11.7 µM | EKVX 17.4 µM
15.6 µM: HCT-15
